Assay results published in patent US4117122A, “11-Aminoalkylmorphanthridin-11-ols” (Richardson-Merrell Inc., priority 1976, dated 1978).

Assays:
[1] = tested on: reserpine-induced depression; experiment: antagonism of reserpine-induced depression in mice (standard antidepressant test); format: in vivo; conditions: for antidepressant potency relative to imipramine: compared with imipramine; for antagonism of reserpine-induced depression: mice, intraperitoneal doses of 5 to 30 mg/kg
Excerpt: (§1) The compounds of the present invention are unique in pharmacologic activity.

[2] = oral LD50 in standard animal tests; format: in vivo; conditions: for LD50: in vivo, standard animal tests, approximately
Excerpt: as §1

[3] = Excerpt: as §1

For `CN(C)CCCC1(O)c2ccccc2CNc2ccc(Cl)cc21` (stereo not shown) [2-Chloro-11-(3-dimethylaminopropyl)-5,6-dihydromorphanthridin-11-ol], the “antidepressant potency relative to imipramine” value [1] was “at least ten times more potent than that of imipramine”, the “antagonism of reserpine-induced depression” value [1] was “antagonize reserpine-induced depression in mice” and the “oral LD50 compared with imipramine” value [2] was “substantially greater than that of imipramine”. For the same compound, the LD50 [2] was ~175 mg/kg and the anticholinergic activity [3] was “no significant anticholinergic activity”.
In the case of `CN(C)CCCC1(O)c2ccccc2C=Nc2ccccc21` (stereo not shown) [11-(3-Dimethylaminopropyl)morphanthridin-11-ol], the “antidepressant potency relative to imipramine” value [1] is reported as “at least ten times more potent than that of imipramine”, the “antagonism of reserpine-induced depression” value [1] is reported as “antagonize reserpine-induced depression in mice” and the “oral LD50 compared with imipramine” value [2] is reported as “substantially greater than that of imipramine”. For the same compound, the LD50 [2] was ~130 mg/kg and the anticholinergic activity [3] was “no significant anticholinergic activity”.
